# Paper PMC7305224, “Mutually stabilizing interactions between proto-peptides and RNA” (Nature Communications, 2020)
# Non-standard residues stand in square brackets, D forms with d. Residues, ends and D or L forms follow the SMILES beside them. *: point of attachment. 5FAM = O=C1OC2(c3ccc(O)cc3Oc3cc(O)ccc32)c2ccc(C(=O)*)cc21; Dab = NCC[C@H](N)C(=O)O; Lac = C[C@H](O)C(=O)O
# Assays:
# 5′-Cy5-U20 RNA = assay: Gel mobility (band) shift assay; format: binding; settings: 66.6–530 µM FAM-labeled sequence, 5′-Cy5-U20 RNA 26.6 µM, MES-TEA buffer pH 6, 12% native polyacrylamide gel
# Protocol: The gel was cropped at the edges for clarity. […] Spectra were recorded in 100 mM MES-TEA buffer (pH 6). d Plot of the change in CD signal at 266 nm as a function of increasing concentrations of depsipeptide 14. Red and blue colors of the filled circles correspond to curves of the same color in panel (c). […] […] An addition of 1.25 µL of glycerol brought the sample volume to a total of 3.75 µL. Samples were loaded onto a 12% native polyacrylamide gel, run at 100 V for 90 min, and imaged using Azure Biosystems c430.
# [1] = test system: RNA duplex 1 (5′-rCrGrCrUrArArArUrCrG-3′ & 5′-rCrGrArUrUrUrArGrCrG-3′); assay: RNA thermal denaturation (Tm) by UV hyperchromicity at 260 nm with synthetic peptides/depsipeptides, RNA duplex 1; format: binding
smiles,measurement,setting,value
"C[C@H](NC(=O)CNC(=O)c1ccc2c(c1)C(=O)OC21c2ccc(O)cc2Oc2cc(O)ccc21)C(=O)N[C@@H](CCN)C(=O)N[C@@H](CCCCN)C(=O)N[C@@H](C)C(=O)N[C@@H](CCN)C(=O)N[C@@H](CCCCN)C(=O)N[C@@H](C)C(=O)N[C@@H](CCN)C(=O)N[C@@H](CCCCN)C(=O)O[C@@H](C)C(=O)N[C@@H](CCN)C(=O)N[C@@H](CCCCN)C(=O)N[C@@H](C)C(=O)N[C@@H](CCN)C(=O)N[C@@H](CCCCN)C(N)=O [compound 13, 5-FAM-Gly-Ala-Dab-Lys-Ala-Dab-Lys-Ala-Dab-Lys-lac-Dab-Lys-Ala-Dab-Lys NH2] (5FAM-GA[Dab]KA[Dab]KA[Dab]K[Lac][Dab]KA[Dab]K-NH2)",band shift of RNA in gel mobility shift assay,5′-Cy5-U20 RNA,concentration-dependent band shift
same,RNA duplex 1 Tm,"[1]; observed Tm, peptide/depsipeptide 80 mM (so in the source), pH 7.0, mean ± SD",56.0 ± 0.8 °C
same,RNA duplex 1 ΔTm,"[1]; peptide/depsipeptide 80 μM, pH 7.0, 10 mM phosphate, 100 mM NaCl",12.2 °C
